Earlier results on one compound are cited in patent US9532983B2, “Benzofuran compounds, compositions, kits and/or methods thereof” (Savannah State University, priority 2013, dated 2017).

This data set concerns the target σ1 receptor (Homo sapiens, UniProt Q99720). The conditions noted are these: read-out: affinity for the σ1 receptor; Maurice et al.; cited from earlier work.

Sequence of σ1 receptor (Q99720 whole entry, species assumed): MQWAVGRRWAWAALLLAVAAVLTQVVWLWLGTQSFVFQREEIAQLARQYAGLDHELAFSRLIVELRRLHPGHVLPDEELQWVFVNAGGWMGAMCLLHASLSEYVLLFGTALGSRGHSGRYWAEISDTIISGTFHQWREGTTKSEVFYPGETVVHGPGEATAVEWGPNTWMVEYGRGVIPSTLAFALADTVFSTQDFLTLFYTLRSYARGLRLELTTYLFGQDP

Take `Cc1ccc2c(c1)[C@]13CCCC[C@@H]1[C@H](C2)N(C)CC3` [dimemorfan]: the Ki is 151 nM.
